The record followed here is patent publication US20250270227A1, “CAMPTOTHECIN DERIVATIVE, AND PHARMACEUTICAL COMPOSITION AND USE THEREOF” (SIMCERE ZAIMING PHARMACEUTICAL CO., LTD., priority 2021, published 2025).

For series [1], the system named is human small cell lung cancer cell line NCI-H82. Kind of series: Test 2 of anti-proliferative activity against tumor cells (Cell-Titer Glo). It counts as cell-based. As to conditions: read-out: NCI-H82 Anti-proliferative activity IC50, NCI-H82 cells, 5 days, Cell-Titer Glo. On the procedure: (§1) Cell culture: SK-OV-3 cells were cultured in McCoy's 5a medium containing 10% fetal bovine serum+1% penicillin-streptomycin, PA-1 cells were cultured in MEM medium containing 10% fetal bovine serum+1% MEM NEAA+1% sodium pyruvate+1% penicillin-streptomycin, NCI-H82 cells and MDA-MB-231 cells were cultured in 1640 medium containing 10% fetal bovine serum+1% penicillin-streptomycin, A549 cells were cultured in DMEM medium containing 10% fetal bovine serum+1% penicillin-streptomycin, all under conditions of 37° C. and 5% CO2. Cells in logarithmic growth phase were suitable for the experiment.
(§2) Detection of cell proliferation activity: The inhibitory activity of the compounds on the proliferation of the five cell lines SK-OV-3, PA-1, NCI-H82, MDA-MB-231 and A549 was detected using Cell-Titer Glo reagent. SK-OV-3 cell (1000 cells per well), PA-1 cells (800 cells per well), NCI-H82 cells (5000 cells per well), MDA-MB-231 cells (3000 cells per well) and A549 cells (400 cells per well) were seeded in 96-well plates and cultured at 37° C. and 5% CO2 for 24 h. The compound to be tested was dissolved in DMSO to a concentration of 1 mM, then subjected to gradient dilution with DMSO and corresponding medium, and transferred to 96-well cell plates to a final concentration of 300 nM (initial concentration), with 3-fold dilution and a total of 9 concentration points. The cells were cultured at 37° C. and 5% CO2 for additional 5 days. The cell viability was detected by adding Cell-Titer Glo reagent.
(§3) Additionally, a negative control group and a positive control group were provided as Bottom and Top, respectively. In the negative control group, the cells were not added, only the same volume of medium was added, and other operations were consistent with those in the experimental group; in the positive control group, the test compound was not added, only the same volume of DMSO was added, and other operations were consistent with those in the experimental group.
(§4) Data analysis: The % compound inhibition was calculated, and fitting was performed to obtain IC50 of the compound.
(§5) % Compound inhibition=1−100%*(Signal−Bottom)/(Top−Bottom).
(§6) Signal represents the signal value of the experimental group, Bottom represents the average signal value of the negative control group, and Top represents the average signal value of the positive control group.

In series [2] the test system is human ovarian cancer cell line PA-1. Described as above. Format: cell-based. The following applies: for IC50: read-out: PA-1 Anti-proliferative activity IC50 (nM), PA-1 cells, 5 days, Cell-Titer Glo; for pIC50: read-out: PA-1 Anti-proliferative activity IC50, PA-1 cells, 5 days, Cell-Titer Glo. On the procedure: as §1, §2, §3, §4, §5, §6
Series [3] concerns Human ovarian cancer cell line SK-OV-3. The series is described as above. It counts as cell-based. The following applies: for pIC50: SK-OV-3 cells, 5 days, Cell-Titer Glo, read-out: SK-OV-3 Anti-proliferative activity IC50; for IC50: read-out: SK-OV-3 Anti-proliferative activity IC50 (nM). The procedure: as §1, §2, §3, §4, §5, §6
For series [4], the system named is human breast cancer cell line MDA-MB-231. The series is described as above. It counts as cell-based. The following applies: Homo sapiens, MDA-MB-231, 120 h; for IC50: read-out: MDA-MB-231 Anti-proliferative activity IC50 (nM); for pIC50: MDA-MB-231 cells, 5 days, Cell-Titer Glo, read-out: MDA-MB-231 Anti-proliferative activity IC50. The procedure:
as §1, §2, §3, §4, §5, §6

Series [5] relates to human non-small cell lung cancer cell line A549. The series is described as above. It counts as cell-based. The following applies: for IC50: read-out: A549 Anti-proliferative activity IC50 (nM), A549 cells, 5 days, Cell-Titer Glo; for pIC50: read-out: A549 Anti-proliferative activity IC50, A549 cells, 5 days, Cell-Titer Glo. On the procedure:
as §1, §2, §3, §4, §5, §6

Series [6] is described as follows: Metabolic stability in liver microsomes. It counts as in vitro ADME, mouse. The following applies: for half-life at 1 μM: CD-1, mouse, microsomes. On the procedure: The metabolic stability of the compounds of the present disclosure in liver microsomes was determined by the following experimental method.
• 1. Human liver microsomes (Corning 452117), Beagle dog liver microsomes (XENOTECH D1000), SD rat liver microsomes (XENOTECH R1000) and CD-1 mouse liver microsomes (XENOTECH M1000) • 2. Na2HPO4 (Tianjin Guangfu Fine Chemical Research Institute 20180130) • 3. KH2PO4 (Tianjin Guangfu Fine Chemical Research Institute 20180920) • 4. MgCl2 (Tianjin Guangfu Fine Chemical Research Institute 20191216) • 5. NADPH (Solarbio 1216C022) • 6. Positive control compound verapamil (Sigma MKBV4993V) • 7. AB Sciex API4000 liquid chromatography-mass spectrometry
• 1. Preparation of 100 mM phosphate buffered saline (PBS): 7.098 g of Na2HPO4 was weighed, 500 mL of pure water was added and subjected to ultrasonic dissolution to obtain solution A. 3.400 g of KH2PO4 was weighed, 250 mL of pure water was added and subjected to ultrasonic dissolution to obtain solution B. Solution A was placed on a stirrer and solution B was slowly added until the pH value reached 7.4 to prepare 100 mM PBS buffer. • 2. Preparation of reaction system
The reaction system was prepared according to the following table:
• 3. The reaction system was placed in a 37° C. water bath and pre-incubated for 10 min. 40 μL of 10 mM NADPH solution (NADPH was dissolved in 100 mM phosphate buffer) was added to the reaction system with the final concentration of NADPH being 1 mM. 40 μL of phosphate buffer was used instead of NADPH solution as negative control. The role of the negative control was to exclude the effect of the chemical stability of the compounds themselves. • 4. 4 μL of 100 μM compound of the present disclosure and the positive control compound verapamil were added to the reaction system to initiate the reaction, with the final concentration of the compound being 1 μM. • 5. After thorough mixing on a vortex oscillator, 50 μL of the incubated sample was taken out at 0.5 min, 15 min, 30 min, 45 min and 60 min, respectively, and the reaction was stopped with 200 μL of glacial acetonitrile containing internal standard. The sample was centrifuged at 3220 g for 45 min. […]
All the data was calculated by the Microsoft Excel software. The peak area was detected by extracting the ion chromatogram. The in vitro half-life (t1/2) of the compound was determined by performing linear fitting of the natural logarithm of elimination percent of the compound and time.
The in vitro half-life (t1/2) was calculated by means of the slope k: […]
The in vitro intrinsic clearance (unit: μL/min/mg protein) was calculated using the following equation: […]
In general terms: Microsomes from liver hold many membrane-bound enzymes, among them those of drug oxidation.

Where [7] appears, read: pH 7.4, mouse liver microsomes 0.5 mg/mL, 1 μM compound, 1 mM NADPH, 37° C., read-out: Stability in mouse liver microsomes t1/2.

Each structure is given as a SMILES string. pIC50: −log10 of the molar value. Where two headings read alike, the source gives them in different places.

For `CC[C@@]1(O)C(=O)OCc2c1cc1n(c2=O)Cc2c-1nc1cc3c(cc1c2CNC(=O)C(O)C1CC1)OCO3` (single isomer, unassigned) [Compound 14-P1], the pIC50 (commonly the IC50 on a negative log10 scale, so that one unit is a factor of ten) is 8.66 in series [1] and 8.66 in series [3] (Homo sapiens, SK-OV-3, 120 h). For the same molecule, the IC50 (as a rule, the concentration at which inhibition is half-maximal) stood at 0.7 nM in series [2] (Homo sapiens, PA-1, 120 h); 7.5 nM in series [4]; 10.2 nM in series [5] (Homo sapiens, A549, 120 h). Besides, in series [6] (setting [7]), the half-life at 1 μM was 1.21 h.
Consider `CC[C@@]1(O)C(=O)OCc2c1cc1n(c2=O)Cc2c-1nc1cc3c(cc1c2CNC(=O)C(O)C1CC1)OCO3` (single isomer, unassigned) [Compound 14-P2], for which the negative-log IC50 (pIC50) in series [1] was 8.33; in series [2], 9.05; in series [3], 8.49; in series [4], 8.06; in series [5], 7.84. Moreover, the “Stability in mouse liver microsomes t1/2” value in series [6] (mouse liver microsomes 0.5 mg/mL, 1 μM compound, 1 mM NADPH, 37° C.) came to 1.08 h.
As to `CC[C@@]1(O)C(=O)OCc2c1cc1n(c2=O)Cc2c-1nc1cc3c(c(F)c1c2CNC(=O)[C@@H](O)C1CC1)OCO3` (single isomer, unassigned) [Compound 37-P1], the pIC50 was 9.05 in series [2] (Homo sapiens, PA-1, 120 h); 8.68 in series [3] (Homo sapiens, SK-OV-3, 120 h); 7.88 in series [4]; 8.04 in series [5] (Homo sapiens, A549, 120 h). In series [6] (pH 7.4), this molecule displayed a half-life at 1 μM of 2.23 h.
As to `CC[C@@]1(O)C(=O)OCc2c1cc1n(c2=O)Cc2c-1nc1cc3c(cc1c2CNC(=O)C(O)C1CC1)OCO3` (stereo partly drawn) [Compound 14, 2-cyclopropyl-N-(((S)-7-ethyl-7-hydroxy-8,11-dioxo-7,8,11,13-tetrahydro-10H-[1,3]dioxolo[4,5-g]pyrano[3′,4′:6,7]indolizino[1,2-b]quinolin-14-yl)methyl)-2-hydroxyacetamide], the pIC50 in series [1] (Homo sapiens, 120 h) was 8.41; in series [2] (Homo sapiens, PA-1, 120 h) it was 9.00; in series [4], 7.98. Moreover, the IC50 was 3 nM in series [3] (Homo sapiens, SK-OV-3, 120 h) and 9.7 nM in series [5] (Homo sapiens, A549, 120 h).
As for `[2H]C1([2H])Oc2cc3nc4c(c(CNC(=O)C(O)C5CC5)c3cc2O1)Cn1c-4cc2c(c1=O)COC(=O)[C@]2(O)CC` (stereo partly drawn) [Compound 39, 2-cyclopropyl-N-(((S)-7-ethyl-7-hydroxy-8,11-dioxo-7,8,11,13-tetrahydro-10H-[1,3]dioxolo[4,5-g]pyrano[3′,4′:6,7]indolizino[1,2-b]quinolin-14-yl-2,2-d2)methyl)-2-hydroxyacetamide], the IC50 amounted to 1.5 nM in series [2] (Homo sapiens, PA-1, 120 h); 2.6 nM in series [3] (Homo sapiens, SK-OV-3, 120 h); 26.4 nM in series [4]; 19.1 nM in series [5] (Homo sapiens, A549, 120 h). For the same molecule, the half-life at 1 μM in series [6] (setting [7]) came out at 4.47 h.
